Drawing on patent publication US10736883B2, “Triazole furan compounds as agonists of the APJ receptor” (AMGEN INC., priority 2016, dated 2020), this text covers EC50 for 16 compounds.

Chain of APJ receptor (P35414 whole entry): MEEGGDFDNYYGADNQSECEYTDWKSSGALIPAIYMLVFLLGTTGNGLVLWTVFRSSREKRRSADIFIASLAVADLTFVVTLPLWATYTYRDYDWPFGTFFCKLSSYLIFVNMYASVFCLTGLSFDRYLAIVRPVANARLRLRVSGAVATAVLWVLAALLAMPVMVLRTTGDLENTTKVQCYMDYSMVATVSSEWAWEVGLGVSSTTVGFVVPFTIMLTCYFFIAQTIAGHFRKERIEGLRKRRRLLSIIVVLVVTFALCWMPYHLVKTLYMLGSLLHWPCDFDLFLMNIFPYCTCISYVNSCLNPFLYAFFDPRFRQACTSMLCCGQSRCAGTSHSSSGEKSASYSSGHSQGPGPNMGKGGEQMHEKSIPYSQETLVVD

This assay has as its target APJ receptor (Homo sapiens (Human), UniProt P35414). The assay can be described thus: [35S]GTPγS binding assay on membranes from CHO cells stably expressing human APJ receptor. In kind it is biochemical. The conditions noted are these: membranes of CHO cells stably expressing human APJ receptor, means of several independent experiments, read-out: Activity hAPJ SPA EC50 IP. How it is done: The human APJ receptor was cloned by polymerase chain reaction and the gene encoding the receptor was subcloned in pFLAG-CMV™-3 expression vector (Sigma, Saint Louis, Mo. USA) in-house at Amgen. A GTPγS binding assay was performed on membranes prepared from CHO cells stably expressing human APJ receptor. The optimum experimental conditions for the concentrations of GDP, MgCl2, and NaCl in the assay buffer were initially determined. The assay was performed in assay buffer [20 mM HEPES, pH 7.5, 5 mM MgCl2, and 0.1% (w/v) BSA with 200 mM NaCl, 3 μM GDP] and membranes expressing human APJ receptor/well along with WGA PS beads. The reaction was initiated by addition of 0.2 nM [^35S]GTPγS (Perkin Elmer Life and Analytical Sciences, Waltham USA) in the absence or presence of various ligands and incubated at RT for 90 min. Nonspecific binding was determined in the presence of 100 μM GTPγS and was always less than 0.2% of total binding. All the results presented are means of several independent experiments and analyzed by non-linear regression methods using commercially available program Prism (GraphPad, San Diego, Calif.) to obtain EC50 detailed in Table 26.
In general terms: Binding of GTPγS marks nucleotide exchange on a G protein.
Broadly, the EC50 is the concentration that produces a half-maximal response. On to `COc1cccc(OC)c1-n1c(NS(=O)(=O)[C@H](C)[C@@H](O)c2cn3ccccc3n2)nnc1-c1ccc(C)o1` (racemic) [Example 269.0, (1R,2S)—N-(4-(2,6-Dimethoxyphenyl)-5-(5-methyl-2-furanyl)-4H-1,2,4-triazol-3-yl)-1-hydroxy-1-imidazo[1,2-a]pyridin-2-yl-2-propanesulfonamide and (1S,2R)—N-(4-(2,6-dimethoxyphenyl)-5-(5-methyl-2-furanyl)-4H-1,2,4-triazol-3-yl)-1-hydroxy-1-imidazo[1,2-a]pyridin-2-yl-2-propanesulfonamide], for which the 50% effective concentration (EC50) turned out to be 0.49 nM. As to `COc1cccc(OC)c1-n1c(NS(=O)(=O)[C@H](C)[C@@H](O)c2cn(C)cn2)nnc1-c1ccc(C)o1` (racemic) [Example 283.0, (1R,2S)—N-(4-(2,6-Dimethoxyphenyl)-5-(5-methyl-2-furanyl)-4H-1,2,4-triazol-3-yl)-1-hydroxy-1-(1-methyl-1H-imidazol-4-yl)-2-propanesulfonamide and (1S,2R)—N-(4-(2,6-dimethoxyphenyl)-5-(5-methyl-2-furanyl)-4H-1,2,4-triazol-3-yl)-1-hydroxy-1-(1-methyl-1H-imidazol-4-yl)-2-propanesulfonamide], the half-maximal effective concentration (EC50) came to 1.4 nM.

On to `COc1cccc(OC)c1-n1c(NS(=O)(=O)[C@H](C)[C@@H](O)c2coc(C)n2)nnc1-c1ccc(C)o1` (racemic) [Example 284.0, (1R,2S)—N-(4-(2,6-Dimethoxyphenyl)-5-(5-methyl-2-furanyl)-4H-1,2,4-triazol-3-yl)-1-hydroxy-1-(2-methyl-1,3-oxazol-4-yl)-2-propanesulfonamide and (1S,2R)—N-(4-(2,6-dimethoxyphenyl)-5-(5-methyl-2-furanyl)-4H-1,2,4-triazol-3-yl)-1-hydroxy-1-(2-methyl-1,3-oxazol-4-yl)-2-propanesulfonamide], for which the EC50 came to 1.6 nM. For `COc1cccc(OC)c1-n1c(NS(=O)(=O)[C@H](C)[C@H](O)c2cn3ccccc3n2)nnc1-c1ccc(C)o1` (racemic) [Example 285.0, (1R,2R)—N-(4-(2,6-Dimethoxyphenyl)-5-(5-methyl-2-furanyl)-4H-1,2,4-triazol-3-yl)-1-hydroxy-1-imidazo[1,2-a]pyridin-2-yl-2-propanesulfonamide and (1S,2S)—N-(4-(2,6-dimethoxyphenyl)-5-(5-methyl-2-furanyl)-4H-1,2,4-triazol-3-yl)-1-hydroxy-1-imidazo[1,2-a]pyridin-2-yl-2-propanesulfonamide] the value was 2.5 nM; for `COc1cccc(OC)c1-n1c(NS(=O)(=O)[C@H](C)[C@@H](O)c2cc3n(n2)CCCO3)nnc1-c1ccc(C)o1` (racemic) [Example 290.0], 5 nM.

For `COc1cccc(OC)c1-n1c(NS(=O)(=O)[C@H](C)[C@H](O)c2ccnc3c2OCCC3)nnc1-c1ccc(C)o1` (racemic) [Example 291.0, (1R,2R)-1-(3,4-Dihydro-2H-pyrano[3,2-b]pyridin-8-yl)-N-(4-(2,6-dimethoxyphenyl)-5-(5-methyl-2-furanyl)-4H-1,2,4-triazol-3-yl)-1-hydroxy-2-propanesulfonamide and (1S,2S)-1-(3,4-dihydro-2H-pyrano[3,2-b]pyridin-8-yl)-N-(4-(2,6-dimethoxyphenyl)-5-(5-methyl-2-furanyl)-4H-1,2,4-triazol-3-yl)-1-hydroxy-2-propanesulfonamide], the EC50 was found to be 5 nM. On to `COc1ccccc1-n1c(NS(=O)(=O)[C@@H](C)Cc2ncc(F)cn2)nnc1-c1ccc(C)o1` (racemic) [Example 295.0, (2S)-1-(5-fluoro-2-pyrimidinyl)-N-(4-(2-methoxyphenyl)-5-(5-methyl-2-furanyl)-4H-1,2,4-triazol-3-yl)-2-propanesulfonamide and (2R)-1-(5-fluoro-2-pyrimidinyl)-N-(4-(2-methoxyphenyl)-5-(5-methyl-2-furanyl)-4H-1,2,4-triazol-3-yl)-2-propanesulfonamide], for which the concentration for a half-maximal effect (EC50) stood at 6.1 nM.

As for `COc1cccc(OC)c1-n1c(NS(=O)(=O)[C@@H](C)[C@@H](O)c2coc(C)n2)nnc1-c1ccc(C)o1` (racemic) [Example 300.0, (1R,2R)—N-(4-(2,6-Dimethoxyphenyl)-5-(5-methyl-2-furanyl)-4H-1,2,4-triazol-3-yl)-1-hydroxy-1-(2-methyl-1,3-oxazol-4-yl)-2-propanesulfonamide and (1S,2S)—N-(4-(2,6-dimethoxyphenyl)-5-(5-methyl-2-furanyl)-4H-1,2,4-triazol-3-yl)-1-hydroxy-1-(2-methyl-1,3-oxazol-4-yl)-2-propanesulfonamide], the concentration giving a half-maximal response (EC50) turned out to be 12 nM. For `COc1cccc(OC)c1-n1c(NS(=O)(=O)[C@H](C)[C@H](O)c2cccc3nccn23)nnc1-c1ccc(C)o1` (racemic) [Example 306.0, (1R,2R)—N-(4-(2,6-Dimethoxyphenyl)-5-(5-methyl-2-furanyl)-4H-1,2,4-triazol-3-yl)-1-hydroxy-1-imidazo[1,2-a]pyridin-5-yl-2-propanesulfonamide and (1S,2S)—N-(4-(2,6-dimethoxyphenyl)-5-(5-methyl-2-furanyl)-4H-1,2,4-triazol-3-yl)-1-hydroxy-1-imidazo[1,2-a]pyridin-5-yl-2-propanesulfonamide] the value was 18 nM; for `C[C@@H](Cc1ncc(F)cn1)S(=O)(=O)Nc1nnc(-c2ccco2)n1-c1ccccc1F` (racemic) [Example 312.0, (2R)—N-(4-(2-Fluorophenyl)-5-(2-furanyl)-4H-1,2,4-triazol-3-yl)-1-(5-fluoro-2-pyrimidinyl)-2-propanesulfonamide and (2S)—N-(4-(2-fluorophenyl)-5-(2-furanyl)-4H-1,2,4-triazol-3-yl)-1-(5-fluoro-2-pyrimidinyl)-2-propanesulfonamide], 210 nM. The result for `Cc1ccc(-c2nnc(NS(=O)(=O)[C@@H](C)Cc3ncc(F)cn3)n2C2CCOCC2)o1` (racemic) [Example 317.0, (2S)-1-(5-Fluoro-2-pyrimidinyl)-N-(5-(5-methyl-2-furanyl)-4-(tetrahydro-2H-pyran-4-yl)-4H-1,2,4-triazol-3-yl)-2-propanesulfonamide and (2R)-1-(5-fluoro-2-pyrimidinyl)-N-(5-(5-methyl-2-furanyl)-4-(tetrahydro-2H-pyran-4-yl)-4H-1,2,4-triazol-3-yl)-2-propanesulfonamide] reads 310 nM; that for `Cc1ccc(-c2nnc(NS(=O)(=O)[C@@H](C)Cc3ncc(F)cn3)n2C2CC2)o1` (racemic) [Example 319.0, (2R)—N-(4-Cyclopropyl-5-(5-methyl-2-furanyl)-4H-1,2,4-triazol-3-yl)-1-(5-fluoro-2-pyrimidinyl)-2-propanesulfonamide and (2S)—N-(4-cyclopropyl-5-(5-methyl-2-furanyl)-4H-1,2,4-triazol-3-yl)-1-(5-fluoro-2-pyrimidinyl)-2-propanesulfonamide], 610 nM; that for `COc1cccc(OC)c1-n1c(NS(=O)(=O)[C@H]2C[C@@H](O)CN(c3nc(C)cc(C)n3)C2)nnc1-c1ccc(C)o1` (racemic) [Example 326.0, (3S,5R)—N-(4-(2,6-Dimethoxyphenyl)-5-(5-methylfuran-2-yl)-4H-1,2,4-triazol-3-yl)-1-(4,6-dimethylpyrimidin-2-yl)-5-hydroxypiperidine-3-sulfonamide and (3R,5S)—N-(4-(2,6-dimethoxyphenyl)-5-(5-methylfuran-2-yl)-4H-1,2,4-triazol-3-yl)-1-(4,6-dimethylpyrimidin-2-yl)-5-hydroxypiperidine-3-sulfonamide], 0.24 nM. For `COc1cccc(OC)c1-n1c(NS(=O)(=O)[C@H]2C[C@@H](O)CN(c3ncc(Cl)cn3)C2)nnc1-c1ccc(C)o1` (racemic) [Example 328.0, (3S,5R)-1-(5-Chloro-2-pyrimidinyl)-N-(4-(2,6-dimethoxyphenyl)-5-(5-methyl-2-furanyl)-4H-1,2,4-triazol-3-yl)-5-hydroxy-3-piperidinesulfonamide and (3R,5S)-1-(5-chloro-2-pyrimidinyl)-N-(4-(2,6-dimethoxyphenyl)-5-(5-methyl-2-furanyl)-4H-1,2,4-triazol-3-yl)-5-hydroxy-3-piperidinesulfonamide] the value was 0.3 nM; for `COc1cccc(OC)c1-n1c(NS(=O)(=O)[C@H]2C[C@@H](O)CN(c3ccc(F)c(C#N)c3)C2)nnc1-c1ccc(C)o1` (racemic) [Example 329.0, (3S,5R)-1-(3-Cyano-4-fluorophenyl)-N-(4-(2,6-dimethoxyphenyl)-5-(5-methyl-2-furanyl)-4H-1,2,4-triazol-3-yl)-5-hydroxy-3-piperidinesulfonamide and (3R,5S)-1-(3-cyano-4-fluorophenyl)-N-(4-(2,6-dimethoxyphenyl)-5-(5-methyl-2-furanyl)-4H-1,2,4-triazol-3-yl)-5-hydroxy-3-piperidinesulfonamide], 0.38 nM.

As for `COc1cccc(OC)c1-n1c(NS(=O)(=O)[C@H]2C[C@@H](O)CN(c3ncc(F)cc3C#N)C2)nnc1-c1ccc(C)o1` (racemic) [Example 331.0, (3S,5R)-1-(3-Cyano-5-fluoropyridin-2-yl)-N-(4-(2,6-dimethoxyphenyl)-5-(5-methylfuran-2-yl)-4H-1,2,4-triazol-3-yl)-5-hydroxypiperidine-3-sulfonamide and (3R,5S)-1-(3-cyano-5-fluoropyridin-2-yl)-N-(4-(2,6-dimethoxyphenyl)-5-(5-methylfuran-2-yl)-4H-1,2,4-triazol-3-yl)-5-hydroxypiperidine-3-sulfonamide], the EC50 was 0.45 nM.
